Results on 94 compounds are retold here after ChEMBL document CHEMBL3507680, “University of Dundee, Gates Library screen for HepG2 cell viability”.

Each structure is given as a SMILES string.

The data set in a line: Human HepG2 cell viability assay in 384 well format. It is filed as toxicity, cell-based. On the set-up: dose 125 nL, time 70.5 hour; concentration not given beside the values. Conditions: HepG2 cells, read-out: Inhibition.
For `COC[C@H]1CNC(=O)[C@@H]2CCN(Cc3cccc(C)n3)CC[C@H]12`, the cytotoxicity at 70.5 h was found to be 0.496%.
As to `O=C(c1ccno1)N1CCO[C@]2(CCC[C@@H]2COCc2ccncc2)C1`, the cytotoxicity at 70.5 h is -2.51%.
On to `Cc1ccsc1C(=O)NCC1COCc2c(C)nnn2C1` (centres undefined), for which the cytotoxicity at 70.5 h is -1.54%.
As for `Cc1nnn2c1COCC(CNC(=O)c1cnoc1C)C2` (centres undefined), the cytotoxicity at 70.5 h turned out to be 0.126%.
Take `CCN1C(=O)C2(CCOCC2)c2cc(NC(=O)c3csnn3)ccc21`: the cytotoxicity at 70.5 h is 8.75%.
As to `Cc1cnc(C(=O)N2CCc3ncnc(C)c3CC2)cn1`, the cytotoxicity at 70.5 h was -3.63%.
As to `O=C(Cc1ccsc1)N1CCn2cc(CN3CCCC3)nc2C1`, the cytotoxicity at 70.5 h was -5.43%.
With `O=C(CC1CC1)NCc1cc(=O)n2c(n1)CN(Cc1ccoc1)CCC2`, the cytotoxicity at 70.5 h is -5.33%.
Regarding `Cc1nocc1C(=O)N1CCc2c(CN(C)C(C)C)n[nH]c2C1`, the cytotoxicity at 70.5 h was -8.09%.
Then `Cc1ccc(CC(=O)N2Cc3nccn3CC(Cn3cccn3)C2)cc1` (centres undefined), with -0.504%; and `Cc1noc([C@@H]2C[C@H]3OCC[C@H]3N(S(C)(=O)=O)C2)n1`, with -8.57%.
Then `COCCNC(=O)C[C@@H]1COC[C@H]2CN(C(=O)c3cnccn3)C[C@@H]12`, with -6.71%.
On to `COCCN1CCC2(CCCN(C(=O)c3cnoc3C)C2)C1=O` (centres undefined), for which the cytotoxicity at 70.5 h is -0.05%.
Then `CN1C(=O)C[C@@H]2[C@@H]1CCN2C(=O)c1ccc[nH]1`, with -2.89%.
In the case of `Cn1cc(CN2C[C@@H]3COC[C@]3(COc3ccc(C#N)cn3)C2)cn1`, the cytotoxicity at 70.5 h is -10.6%.
As to `Cc1ncsc1CN1C[C@@H]2COC[C@]2(COc2ccc(C#N)cn2)C1`, the cytotoxicity at 70.5 h was -4.4%.
To `COCCC(=O)N1CCC2(CN(Cc3ccc(OC)c(F)c3)C2)C1` belongs -9.17%.
For the compound `COC[C@@]12CCO[C@@H]1CCN(C(=O)Cc1ccccc1F)C2`, the cytotoxicity at 70.5 h was -10.5%.
As to `COc1nn(C)c2c1CCCN(C(=O)c1ccccc1)C2`, the cytotoxicity at 70.5 h was -5.54%.
To `C[C@H]1C[C@H]2CN(C(=O)c3ccncn3)CC[C@H]2O1` belongs -0.543%; to `O=C(Cc1cccs1)N1C[C@@H]2COC[C@]2(COc2cccnc2)C1`, -1.72%; to `CC(C)CC(=O)N1CCN(C(=O)N(C)C)CC2(CC(=O)N(C)C2)C1` (centres undefined), 0.114%.
As for `Cn1cc(-c2cnc(N3CCOCC3)nc2)cc1C(=O)O`, the cytotoxicity at 70.5 h was -2.63%.
As for `CN1C[C@H]2CCN(C(=O)NC3CCCC3)CC[C@H]2S1(=O)=O`, the cytotoxicity at 70.5 h was -17.8%.
As for `Cc1ncc(CN2CCc3nc4cc(C(C)(C)C)nn4c(O)c3C2)n1C`, the cytotoxicity at 70.5 h was 7.3%.
On to `Fc1ccc2[nH]c3c(c2c1)CCN1C(c2ccccn2)N2CCC31CC2` (centres undefined), for which the cytotoxicity at 70.5 h was found to be 19%.
Regarding `CC1CCc2nn(CCNC(=O)c3cccs3)c(=O)cc2C1` (centres undefined), the cytotoxicity at 70.5 h is 25.2%.
With `CS(=O)(=O)N1CCC(Cc2cnc(Br)cn2)CC1`, the cytotoxicity at 70.5 h is -5.81%.
For `Cn1cncc1CN1CCOC(Cc2ccccc2)C1` (centres undefined), the cytotoxicity at 70.5 h is -8.78%.
With `CC(=O)N1CCC(c2cncc(N3CCC(O)C3)n2)CC1` (centres undefined), the cytotoxicity at 70.5 h is -2.45%.
On to `Cc1nn(CC(C)C)cc1S(=O)(=O)N(C)Cc1nonc1C`, for which the cytotoxicity at 70.5 h is 0.131%.
Consider `CCCn1cc(S(=O)(=O)N(C)Cc2nonc2C)c(C)n1`, for which the cytotoxicity at 70.5 h was -3.71%.
In the case of `CN(C)C(c1ccccn1)[C@H]1CC[C@H](CNC(=O)C2CC2)CC1` (some centres undefined), the cytotoxicity at 70.5 h turned out to be 1.46%.
Turning to `COCCC(=O)NC[C@H]1CC[C@H](C(c2ccccn2)N(C)C)CC1` (some centres undefined), the cytotoxicity at 70.5 h was -2.06%.
Take `CC(C)c1[nH]c2ncccc2c1CN1CCC(O)CC1`: the cytotoxicity at 70.5 h is -3.13%.
Regarding `CCC1c2ccsc2CCN1Cc1cc2c(cc1OC)OCCO2` (centres undefined), the cytotoxicity at 70.5 h worked out at 1.24%.
Take `CCN(CC)CCCNCc1cc2cc(C)cc(C)c2[nH]c1=O`: the cytotoxicity at 70.5 h was 3.4%.
On to `CN(C)C(=O)Cn1c(C2CC2)c(CN2CCSCC2)c2cccnc21`, for which the cytotoxicity at 70.5 h stood at 1.03%.
Then `O=C(NCCO)c1sc2ncccc2c1C1CNCCO1` (centres undefined), with -4.56%.
As to `c1cncc(CNc2cncc(C3CCCN3)n2)c1` (centres undefined), the cytotoxicity at 70.5 h was -8.46%.
Then `Cc1cc(Oc2ccccc2F)nc(C2CCCCN2)n1` (centres undefined), with -6.21%.
Take `CC(=O)N1CCN(c2cc(C3CCNCC3)ccn2)CC1`: the cytotoxicity at 70.5 h was -1.18%.
To `COCC(=O)N1CCC2(CC1)CC(COC)N(c1ncccn1)C2` (centres undefined) belongs -5.32%; to `Cc1nc(CN2C[C@@H]3CCCO[C@@H]3[C@H](NC(=O)CC3CC3)C2)cs1`, -0.515%; to `O=C(NC1CCC1)[C@@H]1CCO[C@@H]2CCN(C3CCCC3)C[C@@H]21`, 1.69%.
As for `O=C(CC1CC1)N[C@@H]1CN(Cc2ccc(F)cc2)C[C@@H]2CCCO[C@@H]21`, the cytotoxicity at 70.5 h was -3.12%.
Then `CN1CCN(C(=O)Cc2ccsc2)Cc2cccnc21`, with -1.77%; and `Cn1cc(N2C[C@@H]3CN(Cc4ccoc4)C[C@@H]3C2=O)cn1`, with -2.46%; and `COCC1CN(Cc2ccc(C)o2)Cc2nnn(C)c21` (centres undefined), with -0.755%.
`Cc1occc1C(=O)N1CCC2(CCCN(Cc3nccs3)C2)C1` (centres undefined): the cytotoxicity at 70.5 h came to 1.62%.
Then `Cn1cccc1CN1CCC2(CC1)CN(c1ncccn1)CCO2`, with 1.85%; and `CN(C)C(=O)CO[C@H]1CN(Cc2ccccc2)[C@@H]2CCCO[C@H]12`, with 34.3%; and `COc1ccc(CN2C[C@H](OCC3CCOCC3)[C@H]3COC[C@H]32)cc1`, with -9.69%.
For the compound `CCc1ccc(CN2C[C@@H]3OCCN(c4ccnc(N(C)C)n4)[C@@H]3C2)o1`, the cytotoxicity at 70.5 h amounted to 5.59%.
To `CS(=O)(=O)N1CCOCC2(CN(Cc3ccsc3)CCO2)C1` (centres undefined) belongs 0.00349%; to `O=C(NCc1cc(=O)n2c(n1)CN(CC1CCOC1)CCC2)C1CC1` (centres undefined), -4.46%; to `Cn1nnc2c1C(COCc1ccccn1)CN(C(=O)c1cccs1)C2` (centres undefined), 5.64%.
To `Cc1cccc(CN2CCc3ncnc(C)c3CC2)n1` belongs -2.78%; to `COCc1nn(C(C)C)c2c1CCN(Cc1cccs1)C2`, -6.03%.
As to `c1cncc(-c2ccc3c(c2)C2(CC3)CCN(c3nncs3)CC2)c1`, the cytotoxicity at 70.5 h was -13.1%.
As for `c1nc2c(c(C3CC3)n1)CCN(Cc1ccc3c(c1)OCO3)CC2`, the cytotoxicity at 70.5 h is -4.69%.
With `CN(Cc1ccco1)[C@@H]1CN(C(=O)c2ccnnc2)C[C@@H]2CCCO[C@@H]21`, the cytotoxicity at 70.5 h is -7.61%.
With `O=C(C1=CCCC1)N1CCC[C@]2(C[C@@H](Oc3ncccc3F)CO2)C1`, the cytotoxicity at 70.5 h is -6.43%.
For `CN(Cc1ccco1)[C@@H]1CN(C(=O)c2ccnnc2)[C@@H]2CCCO[C@H]12`, the cytotoxicity at 70.5 h was determined as 1.48%.
Consider `CCO[C@@H]1CO[C@@]2(CCCN(Cc3scnc3C)C2)C1`, for which the cytotoxicity at 70.5 h was -11.1%.
`CCO[C@H]1CO[C@@]2(CCCN(Cc3nc(C)cs3)C2)C1`: the cytotoxicity at 70.5 h is -10.1%.
Then `CCCS(=O)(=O)N1CCC2(CN(c3cnn(C)c3)C(=O)CN2C)C1` (centres undefined), with 0.667%.
As for `C1CC(CN2CCO[C@H]3[C@H](OCC4CC4)CC[C@@H]32)CCO1`, the cytotoxicity at 70.5 h is -2.31%.
Regarding `O=C1[C@H]2CN(c3ncccn3)C[C@H]2CN1Cc1ccncc1`, the cytotoxicity at 70.5 h was determined as 3.36%.
Then `Cn1cc(C(=O)NCc2cn3c(n2)CN(CC2CCOCC2)CC3)cn1`, with -1.1%; and `CN(C)C(=O)CC1CC2(CCN(c3ncccn3)CC2)c2ccccc21` (centres undefined), with -0.293%; and `COCC1COCCC12CCN(CCc1ccccc1)CC2` (centres undefined), with -0.938%.
`CCn1cc2c(n1)CN(Cc1ccoc1)CC2COCC1CC1` (centres undefined): the cytotoxicity at 70.5 h is 6.36%.
As to `CN1CC(=O)N(c2ccsc2)CC12CCN(S(C)(=O)=O)C2` (centres undefined), the cytotoxicity at 70.5 h stood at 1.05%.
Consider `O=C(Nc1cnccn1)[C@@H]1COC[C@H]2CN(C3CCCC3)C[C@H]21`, for which the cytotoxicity at 70.5 h is -3.18%.
With `COCCN1CC[C@@H](O)[C@@H]1Cc1ccccc1`, the cytotoxicity at 70.5 h is -16.9%.
Then `CCCS(=O)(=O)N1CCOCC2(CCN(c3ccccn3)C2)C1` (centres undefined), with -11.6%.
For `COC[C@H]1CCC[C@]12CN(CCc1ccccc1)CCO2`, the cytotoxicity at 70.5 h is -15.8%.
For the compound `Cn1cc(CN2CCc3c(COCC4CC4)cncc3C2)cn1`, the cytotoxicity at 70.5 h was -1.91%.
Consider `Fc1ccc(CN2CCC3(CC2)CN(c2ccccn2)CCO3)cc1`, for which the cytotoxicity at 70.5 h amounted to 2.69%.
To `COCCNC(=O)[C@H]1CN(Cc2nccs2)C[C@H]2OCC[C@@H]12` belongs -2.35%; to `COCCNC(=O)[C@H]1CN(Cc2scnc2C)C[C@H]2OCC[C@@H]12`, -3.43%.
As for `CCN(CC)CC1CN(CCc2ccccc2)Cc2nccn2C1` (centres undefined), the cytotoxicity at 70.5 h was -4.11%.
Then `Cc1nnc(N2C[C@@H](OCCCn3cccn3)[C@H]3OCCC[C@H]32)s1`, with -9.45%; and `Cc1ncnc2c1CCN(Cc1ccccn1)CC2`, with -4.71%.
Then `Cc1nnc(N2CCCC3(CN(Cc4ccncc4)CCO3)C2)o1` (centres undefined), with -2.14%; and `CN1CC(=O)N(c2cnn(C)c2)CC12CCN(Cc1ccccc1)C2` (centres undefined), with 0.248%; and `Cc1nc(CN2CCOCC3(CCN(c4ncccn4)C3)C2)cs1` (centres undefined), with -3.76%.
Then `O=C(Nc1cccnc1)[C@H]1COC[C@H]2CN(C3CCCC3)C[C@H]21`, with 3.49%; and `Cn1cc(CN2CCc3onc(COc4cccnc4)c3C2)cn1`, with 14.8%; and `COc1ncccc1CN1C[C@@H]2COC[C@]2(COCC2CC2)C1`, with -11.6%.
`O=C(C[C@@H]1COC[C@H]2CN(Cc3ccncc3)C[C@@H]12)N1CCOCC1`: the cytotoxicity at 70.5 h was -13.2%.
On to `c1ccc(OCC2CC3(CCN(c4ncccn4)CC3)CO2)nc1` (centres undefined), for which the cytotoxicity at 70.5 h is -19.6%.
As to `CO[C@H]1CCN(Cc2cccc(C)n2)[C@@H]2CN(Cc3cccnc3)C[C@H]12`, the cytotoxicity at 70.5 h came to 1.87%.
